Source: PubChem BioAssay (NCI)
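1) Cells in 96-well plates. 2) Compound, 48 h, 5 concentrations. 3) Linear interpolation between surrounding doses. 4) Unreached endpoint = highest concentration. The concentration for full growth arrest is given as TGI.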

Columns and labels:
Assay in all cases: NCI-60 cell line screen, 48 h
CCRF-CEM leukemia = tested on: CCRF-CEM leukemia
EKVX NSCLC = tested on: EKVX NSCLC
HCT-15 colon = tested on: HCT-15 colon
HOP-62 NSCLC = tested on: HOP-62 NSCLC
IGROV1 ovarian = tested on: IGROV1 ovarian
MOLT-4 leukemia = tested on: MOLT-4 leukemia
OVCAR-3 ovarian = tested on: OVCAR-3 ovarian
OVCAR-4 ovarian = tested on: OVCAR-4 ovarian
PC-3 prostate = tested on: PC-3 prostate
SR leukemia = tested on: SR leukemia

SMILES	TGI (CCRF-CEM leukemia) [µM]	TGI (EKVX NSCLC) [µM]	TGI (HCT-15 colon) [µM]	TGI (HOP-62 NSCLC) [µM]	TGI (IGROV1 ovarian) [µM]	TGI (MOLT-4 leukemia) [µM]	TGI (OVCAR-3 ovarian) [µM]	TGI (OVCAR-4 ovarian) [µM]	TGI (PC-3 prostate) [µM]	TGI (SR leukemia) [µM]
N#Cc1c(N2CCN(c3ccc([N+](=O)[O-])cc3)CC2)[n+](=O)c2ccc(-c3ccc([N+](=O)[O-])cc3)cc2n1[O-]	> 100	> 100	> 100	23.8	> 77.8	> 100	> 77.2	> 100	> 100	–
COc1cc(C)cc2c(-c3c(O)cc(O)c4c3C[C@H](C)N[C@H]4C)cc(-c3cc(-c4c(O)cc(O)c5c4C[C@H](C)N[C@H]5C)c4cc(C)cc(OC)c4c3O)c(O)c12	> 100	> 100	> 100	> 100	> 100	> 100	> 100	> 100	> 100	> 100
O=C1/C(=C/c2ccc(O)cc2)CCC1CNc1ccccc1 (stereo unspecified)	4.54	33.6	13.9	36.3	25.3	–	28.4	33.3	23.7	4.22
COc1cccc(NC(=O)CC(=O)N2N=C(C)C(N=Nc3ccc(C(=O)O)cc3)C2=O)c1 (stereo unspecified)	> 100	> 100	> 100	> 100	> 100	–	> 100	> 100	> 100	> 100
O=C(O)CCSC1=NCCN1	> 100	> 100	> 100	> 100	> 100	–	> 100	> 100	> 100	> 100
O=C(O)COc1cc(-c2ccccc2)nc2ccccc12	> 100	> 100	> 100	> 100	> 100	> 100	> 100	> 100	> 100	> 100
C=CCc1ccccc1C1CC2(C(=O)OC)OC1C(C(=O)OC)=C2C(=O)OC (stereo unspecified)	> 10	> 10	> 10	> 10	> 10	> 10	> 10	> 10	> 10	> 10
COc1cccc(C23CCCC(C2)N(C)CC3OC(=O)c2ccccc2)c1OC (stereo unspecified)	25	72.7	72.7	> 100	37.4	60.3	> 100	> 100	81.8	40.9
CCCCCCCCCCCCCCCCCCNC(=O)OCC(CNS(=O)(=O)CCC[n+]1cccc2ccccc21)COC (stereo unspecified)	–	65.7	59.2	38.9	–	> 100	48.5	7.01	4.84	> 100
CC1=CC[C@](C)(O)[C@@]2(C)CC[C@H]3C(=C(C)C)C(=O)C[C@]3(C)C[C@H]12	34.2	> 50	46.2	> 50	> 50	25.7	> 50	> 50	> 50	40.6
Cn1ccc2c(c1=O)C(=O)OC2(C)C	> 100	> 100	> 100	> 100	> 100	> 100	> 100	> 100	> 100	> 100
C=CC(OC(C)=O)c1ccc(OC(C)=O)cc1 (stereo unspecified)	–	41.4	23.5	12.3	29.5	> 44	16.4	37.5	7.82	18.5
COc1cc2oc(-c3ccc4c(c3)OCO4)c(OC)c(=O)c2c(O)c1OC	> 50	> 50	> 50	> 50	> 50	> 50	> 50	> 50	> 50	–
O=C(NCCCCCCO)c1cccc2cc3ccccc3nc12	> 100	32.8	48.6	32.9	35.7	58.5	36.5	66.2	31.9	–
CCn1c(=O)c2c3ccc(OC(C)=O)cc3[nH]c2c2ccc(OC(C)=O)cc21	> 100	–	> 100	> 100	> 100	74.5	> 100	> 100	> 100	> 100
COC(=O)[C@@H]1C=C[C@H](NC(C)=O)C1	> 100	–	> 100	> 100	> 100	> 100	> 100	> 100	> 100	> 100
CC(=Nc1cc(Cl)cc(Cl)c1)c1ccncc1	> 100	> 100	> 100	> 100	> 100	> 100	> 100	> 100	> 100	–
CC(C)(Cc1ccccc1)N1C(=O)N1C(C)(C)Cc1ccccc1	61.3	> 100	68.2	–	> 100	55.6	> 100	> 100	> 100	> 100
COC(=O)/C=c1/c2ccccc2n2c1c1ccccc1[n+]2C	51.1	7.79	33.1	15.3	20.9	> 100	21.9	15.9	9.79	–
CC(=O)NC(=O)NC1=NCCC(=O)N1CCc1c[nH]c2ccccc12	> 100	> 100	> 100	> 100	> 100	> 100	> 100	> 100	> 100	–
CCN(CCCl)c1cccc(NC(=O)c2ccc(C(=O)Nc3cccc(CN(C)C)c3)cc2)c1	1.22	–	6.58	6.14	1.13	1.15	–	0.611	1.02	27.3
NNC(=O)Cn1ccnn1	> 100	> 100	> 100	> 100	> 100	> 100	–	–	> 100	> 100
